# Experimental data published in paper PMC2233662 (The Journal of General Physiology, 2001).
# Biological target: r-InsP3R-3 (recombinant rat type 3 InsP3R) (Rattus norvegicus, UniProt Q63269)
# Assay: single-channel patch clamp of outer nuclear membrane of isolated oocyte nuclei
# Assay type: cell-based
# Chain of r-InsP3R-3 (recombinant rat type 3 InsP3R) (Q63269 whole entry): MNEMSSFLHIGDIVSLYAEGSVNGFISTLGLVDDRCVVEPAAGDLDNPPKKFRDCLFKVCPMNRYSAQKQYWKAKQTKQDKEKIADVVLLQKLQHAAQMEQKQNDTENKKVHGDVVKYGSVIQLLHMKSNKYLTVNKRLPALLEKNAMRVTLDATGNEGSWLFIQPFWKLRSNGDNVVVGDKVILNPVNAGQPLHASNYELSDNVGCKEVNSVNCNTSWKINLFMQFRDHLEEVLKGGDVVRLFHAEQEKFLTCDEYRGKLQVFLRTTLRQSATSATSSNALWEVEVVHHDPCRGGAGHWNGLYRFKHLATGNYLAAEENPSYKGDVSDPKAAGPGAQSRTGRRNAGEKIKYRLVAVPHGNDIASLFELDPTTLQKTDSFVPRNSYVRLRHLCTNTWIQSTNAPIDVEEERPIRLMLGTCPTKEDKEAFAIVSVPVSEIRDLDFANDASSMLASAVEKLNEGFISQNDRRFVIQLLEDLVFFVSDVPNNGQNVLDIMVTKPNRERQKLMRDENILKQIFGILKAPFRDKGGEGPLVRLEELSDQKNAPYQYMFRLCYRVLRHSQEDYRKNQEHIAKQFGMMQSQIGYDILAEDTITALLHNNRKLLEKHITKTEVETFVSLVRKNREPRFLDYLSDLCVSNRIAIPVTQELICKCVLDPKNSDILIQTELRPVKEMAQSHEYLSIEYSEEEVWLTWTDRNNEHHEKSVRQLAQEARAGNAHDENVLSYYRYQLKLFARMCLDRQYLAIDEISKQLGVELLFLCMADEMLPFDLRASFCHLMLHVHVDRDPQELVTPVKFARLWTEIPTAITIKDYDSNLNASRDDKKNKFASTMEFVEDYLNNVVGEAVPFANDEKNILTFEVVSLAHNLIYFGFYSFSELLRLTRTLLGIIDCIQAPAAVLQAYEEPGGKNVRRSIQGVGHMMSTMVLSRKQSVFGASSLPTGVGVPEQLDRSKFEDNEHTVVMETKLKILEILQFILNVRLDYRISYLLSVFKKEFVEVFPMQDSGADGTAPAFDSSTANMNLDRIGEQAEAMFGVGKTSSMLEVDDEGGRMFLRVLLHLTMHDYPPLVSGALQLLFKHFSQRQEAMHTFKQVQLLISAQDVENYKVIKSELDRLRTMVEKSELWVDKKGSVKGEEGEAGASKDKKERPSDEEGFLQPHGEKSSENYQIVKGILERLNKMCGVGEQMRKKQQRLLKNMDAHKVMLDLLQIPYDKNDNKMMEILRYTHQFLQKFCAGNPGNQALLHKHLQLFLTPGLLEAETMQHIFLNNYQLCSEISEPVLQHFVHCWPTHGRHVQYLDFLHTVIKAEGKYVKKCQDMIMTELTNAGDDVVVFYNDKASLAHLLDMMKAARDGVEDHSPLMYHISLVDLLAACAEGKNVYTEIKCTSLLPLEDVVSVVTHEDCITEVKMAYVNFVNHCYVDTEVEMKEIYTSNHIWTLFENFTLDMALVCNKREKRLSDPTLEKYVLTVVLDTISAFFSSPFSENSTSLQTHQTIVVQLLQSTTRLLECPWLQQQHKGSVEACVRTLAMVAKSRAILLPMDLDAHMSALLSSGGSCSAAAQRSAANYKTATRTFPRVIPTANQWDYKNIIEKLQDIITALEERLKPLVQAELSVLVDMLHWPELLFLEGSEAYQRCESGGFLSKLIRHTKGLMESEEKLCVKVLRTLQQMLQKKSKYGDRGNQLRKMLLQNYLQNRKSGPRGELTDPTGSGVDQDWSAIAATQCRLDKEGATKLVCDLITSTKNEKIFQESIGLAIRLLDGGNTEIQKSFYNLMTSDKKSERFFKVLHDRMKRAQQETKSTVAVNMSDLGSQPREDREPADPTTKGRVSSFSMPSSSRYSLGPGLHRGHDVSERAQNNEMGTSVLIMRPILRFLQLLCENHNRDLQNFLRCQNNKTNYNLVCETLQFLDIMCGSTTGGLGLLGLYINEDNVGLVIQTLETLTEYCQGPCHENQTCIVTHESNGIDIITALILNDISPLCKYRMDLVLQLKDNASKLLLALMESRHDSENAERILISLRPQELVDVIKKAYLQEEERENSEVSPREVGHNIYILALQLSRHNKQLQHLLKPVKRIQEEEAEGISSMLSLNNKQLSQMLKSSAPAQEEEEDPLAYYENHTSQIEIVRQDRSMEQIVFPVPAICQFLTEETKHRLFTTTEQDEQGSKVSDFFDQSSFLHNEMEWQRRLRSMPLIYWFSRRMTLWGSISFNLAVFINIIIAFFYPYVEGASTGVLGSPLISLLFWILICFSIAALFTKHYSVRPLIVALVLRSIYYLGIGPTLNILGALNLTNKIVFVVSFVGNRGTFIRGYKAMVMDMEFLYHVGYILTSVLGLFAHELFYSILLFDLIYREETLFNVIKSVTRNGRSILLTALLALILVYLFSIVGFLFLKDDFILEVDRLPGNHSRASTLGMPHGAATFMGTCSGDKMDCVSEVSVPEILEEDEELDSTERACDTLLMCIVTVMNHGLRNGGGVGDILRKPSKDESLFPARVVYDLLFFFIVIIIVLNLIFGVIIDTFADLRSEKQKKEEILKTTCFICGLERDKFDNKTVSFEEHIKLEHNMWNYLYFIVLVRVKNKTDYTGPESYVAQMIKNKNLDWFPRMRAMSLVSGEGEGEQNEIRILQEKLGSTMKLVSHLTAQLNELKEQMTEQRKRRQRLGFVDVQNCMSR
smiles,measurement,value
O=P(O)(O)O[C@@H]1[C@H](O)[C@H](O)[C@@H](OP(=O)(O)O)[C@H](OP(=O)(O)O)[C@H]1O [InsP3],EC50,55 ± 6 nM
